What was measured:
Format in all cases: cell-based
P2Y2 = molecular target: T1, P2Y2 (Homo sapiens, UniProt P41231); assay: Intracellular calcium mobilization (FLIPR, Fluo-3 AM) in 1321N1 cells expressing P2Y2; settings: 1321N1 cells expressing P2Y2, intracellular calcium
T1 construct: expressed in transfected cells; host or cells: human astrocytoma 1321N1 cells
Method: (§1) Human astrocytoma (1321N1) cells expressing P2Y1, P2Y2, P2Y4, and P2Y6 were grown to confluency in 96-well plates. Cells were loaded with a solution of Fluo-3 AM (2.5 μM final concentration) in an assay buffer consisting of 10 mM KCl, 118 mM NaCl, 2.5 mM CaCl2, 1 mM MgCl2, 20 mM HEPES, 10 mM glucose, pH 7.4. After a 60-minute incubation with Fluo-3 AM at 25° C., cells were washed and stimulated with serially diluted concentrations of compounds uridine 5′-diphosphate (UDP), P^1, P^3-(diuridine 5′-)triphosphate (UP3U) or P^1-(2′,3′-benzylacetal uridine 5′-)P^3-(uridine 5′-)triphosphate (mono-benzylacetal UP3U). Intracellular calcium levels were monitored in each well simultaneously by measuring the changes in fluorescence intensity using the FLIPR (Molecular Devices Corp., Sunnyvale, Calif.). Values for compounds UDP, UP3U, and mono-benzylacetal UP3U in Table 1 are presented as EC50 values corresponding to the concentration of an agonist that produces 50% of the maximum possible response.

P2Y4 = molecular target: T2, P2Y4 (Homo sapiens, UniProt P51582); assay: Intracellular calcium mobilization (FLIPR, Fluo-3 AM) in 1321N1 cells expressing P2Y4; settings: 1321N1 cells expressing P2Y4, intracellular calcium
T2 construct: expressed in transfected cells; host or cells: human astrocytoma 1321N1 cells
Method: as §1

P2Y6 = molecular target: T3, P2Y6 (Homo sapiens, UniProt Q15077); assay: Intracellular calcium mobilization (FLIPR, Fluo-3 AM) in 1321N1 cells expressing P2Y6; settings: 1321N1 cells expressing P2Y6, intracellular calcium
T3 construct: expressed in transfected cells; host or cells: human astrocytoma 1321N1 cells
Method: as §1

P2Y1 = molecular target: T4, P2Y1 (Homo sapiens, UniProt P47900); assay: Intracellular calcium mobilization (FLIPR, Fluo-3 AM) in 1321N1 cells expressing P2Y1; settings: 1321N1 cells expressing P2Y1, intracellular calcium
T4 construct: expressed in transfected cells; host or cells: human astrocytoma 1321N1 cells
Method: as §1

T1 sequence (P41231 whole entry, species assumed): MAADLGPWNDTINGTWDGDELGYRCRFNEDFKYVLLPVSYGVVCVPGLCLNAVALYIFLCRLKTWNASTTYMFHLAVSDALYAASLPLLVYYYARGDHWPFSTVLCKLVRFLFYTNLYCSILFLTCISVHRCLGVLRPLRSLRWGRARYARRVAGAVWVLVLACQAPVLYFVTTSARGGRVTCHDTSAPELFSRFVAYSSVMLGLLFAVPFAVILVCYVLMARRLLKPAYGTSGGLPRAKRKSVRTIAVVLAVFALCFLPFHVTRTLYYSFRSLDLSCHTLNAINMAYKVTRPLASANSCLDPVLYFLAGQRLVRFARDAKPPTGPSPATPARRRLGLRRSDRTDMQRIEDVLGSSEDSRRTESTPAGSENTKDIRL
T4 sequence (P47900 whole entry, species assumed): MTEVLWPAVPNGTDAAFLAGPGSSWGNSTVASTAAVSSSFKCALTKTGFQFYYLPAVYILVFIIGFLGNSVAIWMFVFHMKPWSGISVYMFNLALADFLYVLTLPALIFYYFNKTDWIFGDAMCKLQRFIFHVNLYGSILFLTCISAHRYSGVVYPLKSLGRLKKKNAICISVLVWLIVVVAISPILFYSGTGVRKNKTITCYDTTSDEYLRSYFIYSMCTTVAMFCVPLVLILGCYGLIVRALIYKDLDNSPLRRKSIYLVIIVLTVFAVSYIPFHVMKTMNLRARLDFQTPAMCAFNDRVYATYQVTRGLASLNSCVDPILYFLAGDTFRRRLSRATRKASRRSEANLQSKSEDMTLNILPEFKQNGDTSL
T2 sequence (P51582 whole entry, species assumed): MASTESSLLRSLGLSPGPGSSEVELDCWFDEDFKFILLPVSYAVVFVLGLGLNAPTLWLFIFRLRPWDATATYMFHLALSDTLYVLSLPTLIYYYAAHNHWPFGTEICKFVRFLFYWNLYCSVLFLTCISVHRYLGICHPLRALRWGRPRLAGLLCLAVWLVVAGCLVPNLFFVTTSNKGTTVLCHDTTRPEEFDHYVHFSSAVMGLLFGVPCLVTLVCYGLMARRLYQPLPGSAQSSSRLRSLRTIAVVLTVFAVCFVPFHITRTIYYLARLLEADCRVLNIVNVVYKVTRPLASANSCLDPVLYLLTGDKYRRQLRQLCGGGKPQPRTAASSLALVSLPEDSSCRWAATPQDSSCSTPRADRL
T3 sequence (Q15077 whole entry, species assumed): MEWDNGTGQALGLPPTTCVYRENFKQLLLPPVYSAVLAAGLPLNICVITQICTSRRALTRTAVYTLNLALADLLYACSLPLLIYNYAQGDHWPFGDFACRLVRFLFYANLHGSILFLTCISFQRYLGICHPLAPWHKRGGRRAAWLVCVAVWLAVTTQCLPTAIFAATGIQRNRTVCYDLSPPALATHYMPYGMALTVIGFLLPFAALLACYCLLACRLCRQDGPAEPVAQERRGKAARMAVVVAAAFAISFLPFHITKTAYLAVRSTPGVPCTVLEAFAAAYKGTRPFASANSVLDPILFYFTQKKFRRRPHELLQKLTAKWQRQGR

EC50 (P2Y2) [µM] | EC50 (P2Y4) [µM] | EC50 (P2Y6) [µM] | EC50 (P2Y1) [µM] | Structure (SMILES)
4.2 | 9.48 | 0.5 | > 100 | O=c1ccn([C@@H]2O[C@H](COP(=O)(O)OP(=O)(O)O)[C@@H](O)[C@H]2O)c(=O)[nH]1 [UDP, uridine 5′-diphosphate]
13 | > 100 | 0.92 | > 100 | O=c1ccn([C@@H]2O[C@H](COP(=O)(O)OP(=O)(O)OP(=O)(O)OC[C@H]3O[C@@H](n4ccc(=O)[nH]c4=O)[C@H](O)[C@@H]3O)[C@@H](O)[C@H]2O)c(=O)[nH]1 [UP3U, P^1, P^3-(diuridine 5′-)triphosphate]
> 100 | > 100 | 0.14 | > 100 | O=c1ccn([C@@H]2O[C@H](COP(=O)(O)OP(=O)(O)OP(=O)(O)OC[C@@H]3O[C@H](n4ccc(=O)[nH]c4=O)C4OC(Cc5ccccc5)OC43)C(O)C2O)c(=O)[nH]1 (stereo partly drawn) [mono-benzylacetal UP3U, P^1-(2′,3′-benzylacetaluridine 5′-)P^3-(uridine 5′-)triphosphate]

From patent US8158776B2, “P2Y6 receptor agonists for treating lung diseases” (Inspire Pharmaceuticals, Inc., priority 2005, dated 2012)
